Measurements: patent US7285556B2, “Thienopyrimidine-based inhibitors of the src family” (Board of Regents, The University of Texas Systems, priority 2000, dated 2007)
Like-named read-outs stand apart in the source and are kept apart here.

How the values were obtained:
Csk = target: T1, Csk (Homo sapiens, UniProt P41240); assay: Csk tyrosine kinase activity, poly E4Y and 32P-ATP; type: biochemical
T1 construct: GST (glutathione-S-transferase) (N); made in house; host or cells: E. coli (pGEX vector)
Method: Recombinant human Src was expressed using the baculovirus-insect cell system and purified as published (Budde et al., 1993 and 2000). Recombinant Csk and the FGF receptor (FGFr) were expressed as glutathione-S-transferase fusion proteins using the pGEX expression vector and E. coli, and purified as described (Sun & Budde, 1995).
The tyrosine kinase activity of Src, Csk and FGFr was determined using poly E4Y and ^32P-ATP. Briefly, enzymes were assayed in a reaction mixture consisting of 0.15 M EPPS-NaOH (pH 8.0) with 6 mM MgCl2, 0.2 mM γ^32P-ATP (0.2-0.4 mCi/μmol), 10% glycerol, 0.1% Triton X-100, and poly E4Y. Poly E4Y is a synthetic peptide whose phosphorylation is measured in this assay by the addition of the radioactively labeled phosphate from the ATP (Budde et al., 1995). […] When ATP was varied (0, 50, 100 and 250 μM), poly E4Y was kept constant at 150 μg/ml.

Recombinant human Src = target: T2, Recombinant human Src (Homo sapiens, UniProt P12931); assay: Src tyrosine kinase activity, poly E4Y and 32P-ATP; type: biochemical
T2 construct: made in house; host or cells: baculovirus-insect cell system
How it was run: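 Recombinant GST-Csk (E. coli) or baculovirus-expressed human Src assayed on poly E4Y in 0.15 M EPPS-NaOH pH 8.0, 6 mM MgCl2, 0.2 mM γ32P-ATP, 10% glycerol, 0.1% Triton X-100. Read-out is 32P incorporation into poly E4Y; for ATP variation (0–250 μM), poly E4Y held at 150 μg/ml.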

[1] = screening assay, 50 μg/ml poly E4Y, 0.2 mM 32P-ATP
[2] = Table 2, read-out: Src IC50 (especially good inhibitors of Src)
[3] = read-out: IC50 (preferred compounds for treatment of Src family-related disease)

T2 sequence (P12931 whole entry): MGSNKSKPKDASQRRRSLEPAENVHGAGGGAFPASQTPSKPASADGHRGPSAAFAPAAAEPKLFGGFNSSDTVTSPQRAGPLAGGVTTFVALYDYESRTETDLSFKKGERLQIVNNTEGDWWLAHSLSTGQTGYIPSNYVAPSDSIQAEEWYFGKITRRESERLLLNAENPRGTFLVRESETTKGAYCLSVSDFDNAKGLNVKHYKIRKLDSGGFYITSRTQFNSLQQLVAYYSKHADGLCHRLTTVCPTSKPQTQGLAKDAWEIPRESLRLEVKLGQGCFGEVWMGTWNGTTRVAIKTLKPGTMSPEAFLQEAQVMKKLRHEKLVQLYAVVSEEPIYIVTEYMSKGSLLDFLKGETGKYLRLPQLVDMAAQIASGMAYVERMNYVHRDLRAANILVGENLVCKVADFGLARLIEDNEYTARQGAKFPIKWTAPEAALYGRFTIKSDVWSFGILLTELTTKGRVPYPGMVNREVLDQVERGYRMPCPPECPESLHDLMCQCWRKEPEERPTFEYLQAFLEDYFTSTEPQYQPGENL

| IC50 (Csk; [1]) [nM] | IC50 (Recombinant human Src; [2]) [nM] | IC50 (Recombinant human Src; [3]) [nM] | IC50 (Recombinant human Src; screening assay, 50 μg/ml poly E4Y, 0.2 mM 32P-ATP, read-out: Src IC50) [nM] | IC50 (Csk; poly E4Y and 32P-ATP) [nM] | Structure (SMILES) |
| --- | --- | --- | --- | --- | --- |
| > 150000 | ≤ 2000 | < 2000 |  |  | Brc1cc2ncnc(NN=Cc3cccnc3)c2s1 [Compound 221, 3-Pyridinecarboxaldehyde(6-bromothieno[3,2-d]pyrimidin-4-yl)hydrazone] |
| > 148000 |  |  | > 148000 |  | C(=NNc1ncnc2c(-c3ccsc3)csc12)c1cccnc1 [Compound 209] |
| > 127000 | ≤ 2000 | < 2000 |  |  | Cc1c(I)sc2c(NN=Cc3cccnc3)ncnc12 [Compound 372, 3-Pyridinecarboxaldehyde(6-iodo-7-methylthieno[3,2-d]pyrimidin-4-yl)hydrazone] |
| > 130000 | ≤ 2000 | < 2000 |  |  | Cc1c(-c2ccccc2Cl)sc2c(NN=Cc3cccs3)ncnc12 [Compound 391, 2-Thiophenecarboxaldehyde(6-(2-chlorophenyl)7-methylthieno[3,2-d]pyrimidin-4-yl)hydrazone] |
| > 175000 | ≤ 2000 | < 2000 |  |  | Cc1csc2c(NN=Cc3cccc(F)c3)ncnc12 [Compound 52, 3-Fluorobenzaldehyde(7-methylthieno[3,2-d]pyrimidin-4-yl)hydrazone] |
| > 194000 | ≤ 2000 | < 2000 |  |  | Cc1csc2c(NN=Cc3ccco3)ncnc12 [Compound 31, 2-Furancarboxaldehyde(7-methylthieno[3,2-d]pyrimidin-4-yl)hydrazone] |
| > 135000 | ≤ 2000 | < 2000 |  |  | Cc1c(/C=C/c2ccccc2)sc2c(NN=Cc3cccnc3)ncnc12 [Compound 447, 3-Pyridinecarboxaldehyde(7-methyl-6-(trans-2-phenylvinyl)-thieno[3,2-d]pyrimidin-4-yl)hydrazone] |
| > 186000 | ≤ 2000 | < 2000 |  |  | Cc1csc2c(NN=Cc3ccccc3)ncnc12 [Compound 7, Benzaldehyde(7-methylthieno[3,2-d]pyrimidin-4-yl)hydrazone] |
| > 133000 | ≤ 2000 | < 2000 |  |  | COc1ccc(-c2sc3c(NN=Cc4cccnc4)ncnc3c2C)cc1 [Compound 422, 3-Pyridinecarboxaldehyde(6-(4-methoxyphenyl)-7-methylthieno[3,2-d]pyrimidin-4-yl)hydrazone] |
| > 194000 | ≤ 2000 | < 2000 |  |  | Cc1csc2c(NN=Cc3ccc[nH]3)ncnc12 [Compound 30, 1H-Pyrrole-2-carboxaldehyde(7-methylthieno[3,2-d]pyrimidin-4-yl)hydrazone] |
| > 131000 | ≤ 2000 | < 2000 |  |  | Cc1c(-c2ccc(CO)cc2)sc2c(NN=Cc3cccs3)ncnc12 [Compound 438, 2-Thiophenecarboxaldehyde(6-(4-hydroxymethylphenyl)-7-methylthieno[3,2-d]pyrimidin-4-yl)hydrazone] |
| > 119000 | ≤ 2000 | < 2000 |  |  | COc1ccc(C=NNc2ncnc3c(C)c(-c4ccc(CO)cc4)sc23)cc1O [Compound 439, 3-Hydroxy-4-methoxybenzaldehyde(6-(4-hydroxymethylphenyl)-7-methylthieno[3,2-d]pyrimidin-4-yl)hydrazone] |
| > 114000 | ≤ 2000 | < 2000 |  |  | COc1ccc(C=NNc2ncnc3c(C)c(I)sc23)cc1O [Compound 375, 3-Hydroxy-4-methoxybenzaldehyde(6-iodo-7-methylthieno[3,2-d]pyrimidin-4-yl)hydrazone] |
| > 119000 | ≤ 2000 | < 2000 |  |  | COc1cccc(-c2sc3c(NN=Cc4ccc(OC)c(O)c4)ncnc3c2C)c1 [Compound 429, 3-Hydroxy-4-methoxybenzaldehyde(6-(3-methoxyphenyl)-7-methylthieno[3,2-d]pyrimidin-4-yl)hydrazone] |
| > 123000 | ≤ 2000 | < 2000 |  |  | COc1ccc(-c2cc3ncnc(NN=Cc4ccc(OC)c(O)c4)c3s2)cc1 [Compound 408, 3-Hydroxy-4-methoxybenzaldehyde(6-(4-methoxyphenyl)thieno[3,2-d]pyrimidin-4-yl)hydrazone] |
| > 173000 | ≤ 2000 | < 2000 |  |  | Cc1ccc(C=NNc2ncnc3c(C)csc23)s1 [Compound 120, 5-Methyl-2-thiophenecarboxaldehyde(7-methylthieno[3,2-d]pyrimidin-4-yl)hydrazone] |
| > 151000 | ≤ 2000 | < 2000 |  |  | C(=NNc1ncnc2cc(-c3ccccc3)sc12)c1ccncc1 [Compound 252, 4-Pyridinecarboxaldehyde(6-phenylthieno[3,2-d]pyrimidin-4-yl)hydrazone] |

| IC50 (Csk; [1]) [nM] | IC50 (Recombinant human Src; [2]) [nM] | IC50 (Recombinant human Src; [3]) [nM] | IC50 (Recombinant human Src; screening assay, 50 μg/ml poly E4Y, 0.2 mM 32P-ATP, read-out: Src IC50) [nM] | IC50 (Csk; poly E4Y and 32P-ATP) [nM] | Structure (SMILES) |
| --- | --- | --- | --- | --- | --- |
| > 152000 | ≤ 2000 | < 2000 |  |  | CCOc1cc(C=NNc2ncnc3c(C)csc23)ccc1O [Compound 50, 3-Ethoxy-4-hydroxybenzaldehyde(7-methylthieno[3,2-d]pyrimidin-4-yl)hydrazone] |
| > 160000 | ≤ 2000 | < 2000 |  |  | CCOc1cccc(C=NNc2ncnc3c(C)csc23)c1 [Compound 138, 3-Ethoxybenzaldehyde(7-methylthieno[3,2-d]pyrimidin-4-yl)hydrazone] |
| > 131000 | ≤ 2000 | < 2000 |  |  | COc1cccc(-c2sc3c(NN=Cc4cccs4)ncnc3c2C)c1 [Compound 428, 2-Thiophenecarboxaldehyde(6-(3-methoxyphenyl)-7-methylthieno[3,2-d]pyrimidin-4-yl)hydrazone] |
| > 135000 | ≤ 2000 | < 2000 |  |  | Clc1ccccc1-c1cc2ncnc(NN=Cc3cccs3)c2s1 [Compound 320, 2-Thiophenecarboxaldehyde(6-(2-chlorophenyl)thieno[3,2-d]pyrimidin-4-yl)hydrazone] |
| > 122000 | ≤ 2000 | < 2000 |  |  | O=C(O)c1ccc(C=NNc2ncnc3cc(-c4ccc(Cl)cc4)sc23)cc1 [Compound 309, 4-Carboxybenzaldehyde(6-(4-chlorophenyl)thieno[3,2-d]pyrimidin-4-yl)hydrazone] |
| > 131000 | ≤ 2000 | < 2000 |  |  | Ic1cc2ncnc(NN=Cc3cccnc3)c2s1 [Compound 394, 3-Pyridinecarboxaldehyde(6-iodothieno[3,2-d]pyrimidin-4-yl)hydrazone] |
| > 152000 | ≤ 2000 | < 2000 |  |  | COc1cc(C=NNc2ncnc3c(C)csc23)cc(OC)c1 [Compound 18, 3,5-Dimethoxybenzaldehyde(7-methylthieno[3,2-d]pyrimidin-4-yl)hydrazone] |
| > 176000 | ≤ 2000 | < 2000 |  |  | CCc1csc2c(NN=Cc3cccnc3)ncnc12 [Compound 257, 3-Pyridinecarboxaldehyde(7-ethylthieno[3,2-d]pyrimidin-4-yl)hydrazone] |
| > 186000 | ≤ 2000 | < 2000 |  |  | Cc1csc2c(NN=Cc3ccncc3)ncnc12 [Compound 16, 4-Pyridinecarboxaldehyde(7-methylthieno[3,2-d]pyrimidin-4-yl)hydrazone] |
|  | ≤ 2000 | < 2000 |  | > 101000 | COc1ccc(C=NNc2ncnc3c(C)c(C(Cc4ccccc4)c4ccccc4)sc23)cc1O (centres unmarked) [Compound 475, 3-Hydroxy-4-methoxybenzaldehyde(6-(1-benzyl-1-phenyl)methyl-7-methylthieno[3,2-d]pyrimidin-4-yl)hydrazone] |
| > 119000 | ≤ 2000 | < 2000 |  |  | COc1ccc(-c2sc3c(NN=Cc4ccc(OC)c(O)c4)ncnc3c2C)cc1 [Compound 425, 3-Hydroxy-4-methoxybenzaldehyde(6-(4-methoxyphenyl)-7-methylthieno[3,2-d]pyrimidin-4-yl)hydrazone] |
| > 152000 | ≤ 2000 | < 2000 |  |  | COc1ccc(C=NNc2ncnc3c(C)csc23)cc1OC [Compound 17, 3,4-Dimethoxybenzaldehyde(7-methylthieno[3,2-d]pyrimidin-4-yl)hydrazone] |
| > 117000 | ≤ 2000 | < 2000 |  |  | COc1ccc(C=NNc2ncnc3cc(I)sc23)cc1O [Compound 397, 3-Hydroxy-4-Methoxybenzaldehyde(6-iodothieno[3,2-d]pyrimidin-4-yl)hydrazone] |
| > 144000 | ≤ 2000 | < 2000 |  |  | Fc1ccc(C=NNc2ncnc3cc(-c4ccccc4)sc23)cc1 [Compound 75, 4-Fluorobenzaldehyde(6-phenylthieno[3,2-d]pyrimidin-4-yl)hydrazone] |
| > 170000 | ≤ 2000 | < 2000 |  |  | Cc1csc2c(NN=Cc3cccc(C#N)c3)ncnc12 [Compound 122, 3-Cyanobenzaldehyde(7-methylthieno[3,2-d]pyrimidin-4-yl)hydrazone] |
| > 150000 | ≤ 2000 | < 2000 |  |  | Brc1csc2c(NN=Cc3cccnc3)ncnc12 [Compound 180, 3-Pyridinecarboxaldehyde(7-bromothieno[3,2-d]pyrimidin-4-yl)hydrazone] |
